# Laboratory results published in publication PMC5578999, “Novel quinolone chalcones targeting colchicine-binding pocket kill multidrug-resistant cancer cells by inhibiting tubulin activity and MRP1 function” (Scientific Reports, 2017).
# Columns and labels:
# Test in all cases: NCI-60 SRB screen
# Type in all cases: cell-based
# A549/ATCC = system: A549/ATCC
# BT-549 = system: BT-549
# DU-145 = system: DU-145
# HCT-15 = system: HCT-15
# LOX IMVI = system: LOX IMVI
# MALME-3M = system: MALME-3M
# MDA-MB-468 = system: MDA-MB-468
# OVCAR-3 = system: OVCAR-3
# OVCAR-5 = system: OVCAR-5
# RPMI-8226 = system: RPMI-8226
# RXF 393 = system: RXF 393
# SK-MEL-28 = system: SK-MEL-28
# [1] = Homo sapiens, read-out: LC50 (the source's name)
smiles,measurement,setting,value
"COc1ccc2[nH]c(=O)c(/C=C/C(=O)c3ccccc3OC)cc2c1 [CTR-20, (E)-6-Methoxy-3-(3-(2-methoxyphenyl)-3-oxoprop-1-enyl) quinolin-2(1H)-one]",Log10GI50,A549/ATCC,-5.68 Molar
same,Log10LC50,A549/ATCC,-4.42 Molar
same,Log10TGI,A549/ATCC,-4.98 Molar
same,TGI,A549/ATCC,1.04E-5 Molar
same,Growth Percent,A549/ATCC; 1.00E-5 Molar,10.42%
same,GI50,A549/ATCC; Homo sapiens,2090 nM
same,CC50,A549/ATCC; [1],37900 nM
same,Percent Growth,A549/ATCC; Log10 Concentration -4.0,-88%
same,Percent Growth,A549/ATCC; Log10 Concentration -5.0,2%
same,Percent Growth,A549/ATCC; Log10 Concentration -6.0,73%
same,Percent Growth,A549/ATCC; Log10 Concentration -7.0,114%
same,Percent Growth,A549/ATCC; Log10 Concentration -8.0,106%
same,Log10GI50,BT-549,-6.41 Molar
same,Log10LC50,BT-549,-4.72 Molar
same,Log10TGI,BT-549,-5.62 Molar
same,TGI,BT-549,2.42E-6 Molar
same,Growth Percent,BT-549; 1.00E-5 Molar,18.91%
same,GI50,BT-549; Homo sapiens,387 nM
same,CC50,BT-549; [1],19200 nM
same,Percent Growth,BT-549; Log10 Concentration -4.0,-97%
same,Percent Growth,BT-549; Log10 Concentration -5.0,-32%
same,Percent Growth,BT-549; Log10 Concentration -6.0,20%
same,Percent Growth,BT-549; Log10 Concentration -7.0,93%
same,Percent Growth,BT-549; Log10 Concentration -8.0,91%
same,Log10GI50,DU-145,-6.28 Molar
same,Log10LC50,DU-145,-5.26 Molar
same,Log10TGI,DU-145,-5.71 Molar
same,TGI,DU-145,1.96E-6 Molar
same,Growth Percent,DU-145; 1.00E-5 Molar,10.76%
same,GI50,DU-145; Homo sapiens,529 nM
same,CC50,DU-145; [1],5470 nM
same,Percent Growth,DU-145; Log10 Concentration -4.0,-93%
same,Percent Growth,DU-145; Log10 Concentration -5.0,-79%
same,Percent Growth,DU-145; Log10 Concentration -6.0,33%
same,Percent Growth,DU-145; Log10 Concentration -7.0,95%
same,Percent Growth,DU-145; Log10 Concentration -8.0,98%
same,Log10GI50,HCT-15,-6.40 Molar
same,Log10LC50,HCT-15,-5.08 Molar
same,Log10TGI,HCT-15,-5.69 Molar
same,TGI,HCT-15,2.05E-6 Molar
same,Growth Percent,HCT-15; 1.00E-5 Molar,11.32%
same,GI50,HCT-15; Homo sapiens,395 nM
same,LC50,HCT-15; Homo sapiens,8290 nM
same,Percent Growth,HCT-15; Log10 Concentration -4.0,-85%
same,Percent Growth,HCT-15; Log10 Concentration -5.0,-57%
same,Percent Growth,HCT-15; Log10 Concentration -6.0,26%
same,Percent Growth,HCT-15; Log10 Concentration -7.0,86%
same,Percent Growth,HCT-15; Log10 Concentration -8.0,95%
same,Log10GI50,LOX IMVI,-6.42 Molar
same,Log10LC50,LOX IMVI,-5.33 Molar
same,Log10TGI,LOX IMVI,-5.79 Molar
same,TGI,LOX IMVI,1.61E-6 Molar
same,Growth Percent,LOX IMVI; 1.00E-5 Molar,10.23%
same,GI50,LOX IMVI; Homo sapiens,379 nM
same,LC50,LOX IMVI; Homo sapiens,4710 nM
same,Percent Growth,LOX IMVI; Log10 Concentration -4.0,-95%
same,Percent Growth,LOX IMVI; Log10 Concentration -5.0,-85%
same,Percent Growth,LOX IMVI; Log10 Concentration -6.0,22%
same,Percent Growth,LOX IMVI; Log10 Concentration -7.0,88%
same,Percent Growth,LOX IMVI; Log10 Concentration -8.0,96%
same,GI50,"MALME-3M; Homo sapiens, Malme-3M",766 nM
same,CC50,"MALME-3M; Homo sapiens, Malme-3M, read-out: LC50 (the source's name)",30300 nM
same,Log10GI50,MALME-3M; MALME-3M,-6.12 Molar
same,Log10LC50,MALME-3M; MALME-3M,-4.52 Molar
same,Log10TGI,MALME-3M; MALME-3M,-5.09 Molar
same,TGI,MALME-3M; MALME-3M,8.09E-6 Molar
same,Growth Percent,"MALME-3M; MALME-3M, 1.00E-5 Molar",38.55%
same,Percent Growth,"MALME-3M; MALME-3M, Log10 Concentration -4.0",-99%
same,Percent Growth,"MALME-3M; MALME-3M, Log10 Concentration -5.0",-5%
same,Percent Growth,"MALME-3M; MALME-3M, Log10 Concentration -6.0",46%
same,Percent Growth,"MALME-3M; MALME-3M, Log10 Concentration -7.0",81%
same,Percent Growth,"MALME-3M; MALME-3M, Log10 Concentration -8.0",92%
same,Log10GI50,MDA-MB-468,-6.47 Molar
same,Log10LC50,MDA-MB-468,-4.40 Molar
same,Log10TGI,MDA-MB-468,-5.78 Molar
same,TGI,MDA-MB-468,1.65E-6 Molar
same,Growth Percent,MDA-MB-468; 1.00E-5 Molar,16.65%
same,GI50,MDA-MB-468; Homo sapiens,336 nM
same,CC50,MDA-MB-468; [1],40100 nM
same,Percent Growth,MDA-MB-468; Log10 Concentration -4.0,-68%
same,Percent Growth,MDA-MB-468; Log10 Concentration -5.0,-22%
same,Percent Growth,MDA-MB-468; Log10 Concentration -6.0,6%
same,Percent Growth,MDA-MB-468; Log10 Concentration -7.0,99%
same,Percent Growth,MDA-MB-468; Log10 Concentration -8.0,99%
same,Log10GI50,OVCAR-3,-6.44 Molar
same,Log10LC50,OVCAR-3,-5.03 Molar
same,Log10TGI,OVCAR-3,-5.78 Molar
same,TGI,OVCAR-3,1.64E-6 Molar
same,Growth Percent,OVCAR-3; 1.00E-5 Molar,8.25%
same,GI50,OVCAR-3; Homo sapiens,359 nM
same,CC50,OVCAR-3; [1],9330 nM
same,Percent Growth,OVCAR-3; Log10 Concentration -4.0,-96%
same,Percent Growth,OVCAR-3; Log10 Concentration -5.0,-52%
same,Percent Growth,OVCAR-3; Log10 Concentration -6.0,14%
same,Percent Growth,OVCAR-3; Log10 Concentration -7.0,95%
same,Percent Growth,OVCAR-3; Log10 Concentration -8.0,102%
same,Log10GI50,OVCAR-5,-5.71 Molar
same,Log10LC50,OVCAR-5,-4.33 Molar
same,Log10TGI,OVCAR-5,-4.98 Molar
same,TGI,OVCAR-5,1.04E-5 Molar
same,Growth Percent,OVCAR-5; 1.00E-5 Molar,12.07%
same,GI50,OVCAR-5; Homo sapiens,1970 nM
same,CC50,OVCAR-5; [1],46600 nM
same,Percent Growth,OVCAR-5; Log10 Concentration -4.0,-75%
same,Percent Growth,OVCAR-5; Log10 Concentration -5.0,1%
same,Percent Growth,OVCAR-5; Log10 Concentration -6.0,70%
same,Percent Growth,OVCAR-5; Log10 Concentration -7.0,98%
same,Percent Growth,OVCAR-5; Log10 Concentration -8.0,93%
same,Log10GI50,RPMI-8226,-6.41 Molar
same,Log10LC50,RPMI-8226,> -4.00 Molar
same,Log10TGI,RPMI-8226,-5.66 Molar
same,TGI,RPMI-8226,2.21E-6 Molar
same,Growth Percent,RPMI-8226; 1.00E-5 Molar,5.61%
same,GI50,RPMI-8226; Homo sapiens,385 nM
same,CC50,RPMI-8226; [1],> 100000 nM
same,Percent Growth,RPMI-8226; Log10 Concentration -4.0,-37%
same,Percent Growth,RPMI-8226; Log10 Concentration -5.0,-20%
same,Percent Growth,RPMI-8226; Log10 Concentration -6.0,10%
same,Percent Growth,RPMI-8226; Log10 Concentration -7.0,106%
same,Percent Growth,RPMI-8226; Log10 Concentration -8.0,113%
same,Log10GI50,RXF 393,-5.99 Molar
same,Log10LC50,RXF 393,-5.19 Molar
same,Log10TGI,RXF 393,-5.59 Molar
same,TGI,RXF 393,2.57E-6 Molar
same,Growth Percent,RXF 393; 1.00E-5 Molar,-7.90%
same,GI50,RXF 393; Homo sapiens,1020 nM
same,CC50,RXF 393; [1],6480 nM
same,Percent Growth,RXF 393; Log10 Concentration -4.0,-98%
same,Percent Growth,RXF 393; Log10 Concentration -5.0,-74%
same,Percent Growth,RXF 393; Log10 Concentration -6.0,51%
same,Percent Growth,RXF 393; Log10 Concentration -7.0,99%
same,Percent Growth,RXF 393; Log10 Concentration -8.0,99%
same,Log10GI50,SK-MEL-28,-5.82 Molar
same,Log10LC50,SK-MEL-28,-4.54 Molar
same,Log10TGI,SK-MEL-28,-5.14 Molar
same,TGI,SK-MEL-28,7.32E-6 Molar
same,Growth Percent,SK-MEL-28; 1.00E-5 Molar,50.45%
same,GI50,SK-MEL-28; Homo sapiens,1520 nM
same,CC50,SK-MEL-28; [1],28500 nM
same,Percent Growth,SK-MEL-28; Log10 Concentration -4.0,-98%
same,Percent Growth,SK-MEL-28; Log10 Concentration -5.0,-10%
same,Percent Growth,SK-MEL-28; Log10 Concentration -6.0,63%
same,Percent Growth,SK-MEL-28; Log10 Concentration -7.0,95%
same,Percent Growth,SK-MEL-28; Log10 Concentration -8.0,96%
